Test results: patent publication US10301284B2, “Therapeutic inhibitory compounds” (LifeSci Pharmaceuticals, Inc., priority 2016, dated 2019)
Where two headings read alike, the source gives them in different places.

Target: human Plasma Kallikrein (Homo sapiens (Human), UniProt P03952)
Assay: In vitro enzyme inhibition of human plasma kallikrein (Pro-Phe-Arg-AMC cleavage)
Assay type: biochemical
Description: The ability of the compounds disclosed herein to inhibit human plasma kallikrein activity was quantified according to the procedures below.
A 10 mM solution of the test compound was made in DMSO. This solution was serially diluted 1:5 in DMSO to yield 2000, 400, 80, 16, 3.2, 0.64, 0.128, 0.0256 and 0.00512 μM compound test solutions. A control tube containing only DMSO is included. 16 μL of each compound test solution was combined with 384 μL of assay buffer (50 mM Tris-HCl pH 7.5, 150 mM NaCl, 0.01% Triton X-100) to yield a “4× test compound buffer stock”.
Separately, a 40 nM solution of human Plasma Kallikrein (Abcam) and a 93.6 μM solution Pro-Phe-Arg-AMC (Bachem) were made using assay buffer. These solutions are hereby referred to as 4×hPK and 2×PFR-AMC, respectively.
60 μL of each 4× test compound buffer stock was combined with 60 μL of 4×hPK to yield 120 μL of “2× test compound buffer stock/2×hPK”. 50 μL was removed from this mixture and placed into duplicate wells on a Microfluor 1Black U-bottom microtiter plate (Thermo Scientific). This plate was incubated for 5 minutes at 37° C. To each well, 50 μL of pre-warmed 2×PFR-AMC was added to start the enzymatic reaction. Cleavage of PFR-AMC was monitored in a Biotek Synergy H4 reader set at 37° C. Readings are taken every 43 seconds for 1 hour. The highest mean velocity over 20 reads (˜15 minutes) is used to calculate the IC50. The IC50 is calculated using the Gen5 (Biotek Instruments).
The ability of the compounds listed in Table 2 to inhibit human plasma kallikrein activity was determined.

[1] = human plasma kallikrein, PFR-AMC substrate, 37° C., read-out: hPK IC50

human Plasma Kallikrein, sequence (P03952 391-638 limits assumed): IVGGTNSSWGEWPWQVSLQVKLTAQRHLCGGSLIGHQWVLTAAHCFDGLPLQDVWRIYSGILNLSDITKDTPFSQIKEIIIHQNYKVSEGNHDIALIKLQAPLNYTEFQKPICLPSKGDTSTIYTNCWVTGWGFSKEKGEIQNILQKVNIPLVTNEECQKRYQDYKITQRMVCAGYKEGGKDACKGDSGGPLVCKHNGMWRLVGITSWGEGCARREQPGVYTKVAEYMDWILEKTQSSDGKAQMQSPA
human Plasma Kallikrein, sequence (P03952 20-390 partner limits assumed): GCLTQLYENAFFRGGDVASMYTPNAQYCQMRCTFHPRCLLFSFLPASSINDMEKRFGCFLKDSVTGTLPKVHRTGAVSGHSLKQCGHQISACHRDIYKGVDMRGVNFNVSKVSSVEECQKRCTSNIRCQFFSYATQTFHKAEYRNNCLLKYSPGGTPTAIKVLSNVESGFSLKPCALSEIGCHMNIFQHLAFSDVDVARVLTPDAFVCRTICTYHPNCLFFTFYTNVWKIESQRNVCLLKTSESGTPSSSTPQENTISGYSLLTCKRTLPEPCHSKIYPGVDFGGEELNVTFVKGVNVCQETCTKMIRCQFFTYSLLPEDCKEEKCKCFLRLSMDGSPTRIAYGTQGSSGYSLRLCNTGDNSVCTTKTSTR

| Compound | IC50 [1] | IC50 |
| --- | --- | --- |
| Cc1cc(N)nc(C)c1CNC(=O)c1cnc(Cc2ccc3ncc(Cl)cc3c2)o1 [Example 89, N-((6-amino-2,4-dimethylpyridin-3-yl)methyl)-2-((3-chloroquinolin-6-yl)methyl)oxazole-5-carboxamide] | < 100 nM | – |
| Cc1cc(N)nc(C)c1CNC(=O)c1c2ccccc2nn1Cc1ccc2ncc(Cl)cc2c1 [Example 14, N-((6-amino-2,4-dimethylpyridin-3-yl)methyl)-2-((3-chloroquinolin-6-yl)methyl)-2H-indazole-3-carboxamide] | > 10000 nM | – |
| Cc1cc(N)nc(C)c1CNC(=O)c1c[nH]c(Cc2ccc3ncc(Cl)cc3c2)n1 [Example 103, N-((6-amino-2,4-dimethylpyridin-3-yl)methyl)-2-((3-chloroquinolin-6-yl)methyl)-1H-imidazole-4-carboxamide] | < 100 nM | – |
| Cc1nc(N)ccc1CNC(=O)c1nnc(Cc2ccc3ncc(Cl)cc3c2)o1 [Example 79, N-((6-amino-2-methylpyridin-3-yl)methyl)-5-((3-chloroquinolin-6-yl)methyl)-1,3,4-oxadiazole-2-carboxamide] | 100 to 1000 nM | – |
| Cc1nc(N)ccc1CNC(=O)c1coc(Cc2ccc3ncc(Cl)cc3c2)n1 [Example 83, N-((6-amino-2-methylpyridin-3-yl)methyl)-2-((3-chloroquinolin-6-yl)methyl)oxazole-4-carboxamide] | 100 to 1000 nM | – |
| Cc1cc(N)nc(C)c1CNC(=O)c1cnn(Cc2cc(F)c3ncc(Cl)cc3c2)c1C#N [Example 70, N-((6-amino-2,4-dimethylpyridin-3-yl)methyl)-1-((3-chloro-8-fluoroquinolin-6-yl)methyl)-5-cyano-1H-pyrazole-4-carboxamide] | > 10000 nM | – |
| Cc1cnc2c(C#N)cc(Cn3cc(C(=O)NCc4c(C)cc(N)nc4C)c(C(N)=O)n3)cc2c1 [Example 63, N4-((6-amino-2,4-dimethylpyridin-3-yl)methyl)-1-((8-cyano-3-methylquinolin-6-yl)methyl)-1H-pyrazole-3,4-dicarboxamide] | 100 to 1000 nM | – |
| N-((6-amino-2,4-dimethylpyridin-3-yl)methyl)-1-((3-chloroquinolin-6-yl)methyl)-3-cyano-1H-1,2,4-triazole-5-carboxamide [Example 107] | 100 to 1000 nM | – |
| N#Cc1nn(Cc2cc(F)c3ncc(Cl)cc3c2)cc1C(=O)NCc1ccc2[nH]cc(Cl)c2c1F [Example 57, N-((3-chloro-4-fluoro-1H-indol-5-yl)methyl)-1-((3-chloro-8-fluoroquinolin-6-yl)methyl)-3-cyano-1H-pyrazole-4-carboxamide] | 100 to 1000 nM | – |
| COC(=O)c1nc(C(=O)NCc2c(C)cc(N)nc2C)nn1Cc1ccc2ncc(Cl)cc2c1 [Example 102, methyl 3-(((6-amino-2,4-dimethylpyridin-3-yl)methyl)carbamoyl)-1-((3-chloroquinolin-6-yl)methyl)-1H-1,2,4-triazole-5-carboxylate] | > 10000 nM | – |
| COc1ccc2c(n1)c(C(=O)NCc1c(C)cc(N)nc1C)cn2Cc1ccc2ncc(Cl)cc2c1 [Example 128, N-((6-amino-2,4-dimethylpyridin-3-yl)methyl)-1-((3-chloroquinolin-6-yl)methyl)-5-methoxy-1H-pyrrolo[3,2-b]pyridine-3-carboxamide] | – | 1000 to 10000 nM |
| Cc1cc(N)nc(C)c1CNC(=O)c1c2c(N)cccc2nn1Cc1ccc2ncc(Cl)cc2c1 [Example 140, 4-amino-N-((6-amino-2,4-dimethylpyridin-3-yl)methyl)-2-((3-chloroquinolin-6-yl)methyl)-2H-indazole-3-carboxamide] | > 10000 nM | – |
| Cc1cc(N)nc(C)c1CNC(=O)c1nn(Cc2ccc3ncc(Cl)cc3c2)c2cc[nH]c(=O)c12 [Example 120, N-((6-amino-2,4-dimethylpyridin-3-yl)methyl)-1-((3-chloroquinolin-6-yl)methyl)-4-oxo-4,5-dihydro-1H-pyrazolo[4,3-c]pyridine-3-carboxamide] | 1000 to 10000 nM | – |
| N#Cc1nn(Cc2ccc3ncc(Cl)cc3c2)cc1C(=O)NCc1cc2c(Cl)c[nH]c2cc1F [Example 51, N-((3-chloro-6-fluoro-1H-indol-5-yl)methyl)-1-((3-chloroquinolin-6-yl)methyl)-3-cyano-1H-pyrazole-4-carboxamide] | 100 to 1000 nM | – |
| Cc1cc(N)nc(C)c1CNC(=O)c1cn(C)c(Cc2ccc3ncc(Cl)cc3c2)n1 [Example 104, N-((6-amino-2,4-dimethylpyridin-3-yl)methyl)-2-((3-chloroquinolin-6-yl)methyl)-1-methyl-1H-imidazole-4-carboxamide] | > 10000 nM | – |
| Cc1cc(N)nc(C)c1CNC(=O)c1cn(Cc2cc(S(N)(=O)=O)c3ncc(Cl)cc3c2)nc1C#N [Example 60, N-((6-amino-2,4-dimethylpyridin-3-yl)methyl)-1-((3-chloro-8-sulfamoylquinolin-6-yl)methyl)-3-cyano-1H-pyrazole-4-carboxamide] | < 100 nM | – |
| O=C(NCc1cc2c(Cl)c[nH]c2cc1F)c1nnc(Cc2ccc3ncc(Cl)cc3c2)o1 [Example 44, N-((3-chloro-6-fluoro-1H-indol-5-yl)methyl)-5-((3-chloroquinolin-6-yl)methyl)-1,3,4-oxadiazole-2-carboxamide] | 100 to 1000 nM | – |
| Cc1cc(N)nc(C)c1CNC(=O)c1cn(Cc2ccc3ncc(Cl)cc3c2)nc1CO [Example 92, N-((6-amino-2,4-dimethylpyridin-3-yl)methyl)-1-((3-chloroquinolin-6-yl)methyl)-3-(hydroxymethyl)-1H-pyrazole-4-carboxamide] | < 100 nM | – |
| O=C(NCc1n[nH]c2ccc(Cl)cc12)c1nnc(Cc2ccc3ncc(Cl)cc3c2)o1 [Example 42, N-((5-chloro-1H-indazol-3-yl)methyl)-5-((3-chloroquinolin-6-yl)methyl)-1,3,4-oxadiazole-2-carboxamide] | 100 to 1000 nM | – |
| Cc1cc(N)nc(C)c1CNC(=O)c1[nH]c(Cc2ccc3ncc(Cl)cc3c2)nc1Br [Example 106, N-((6-amino-2,4-dimethylpyridin-3-yl)methyl)-4-bromo-2-((3-chloroquinolin-6-yl)methyl)-1H-imidazole-5-carboxamide] | < 100 nM | – |
| Cc1nc(N)ccc1CNC(=O)c1cn(Cc2ccc3ncc(Cl)cc3c2)nc1C [Example 85, N-((6-amino-2-methylpyridin-3-yl)methyl)-1-((3-chloroquinolin-6-yl)methyl)-3-methyl-1H-pyrazole-4-carboxamide] | < 100 nM | – |
| Cc1nc(N)ccc1CNC(=O)c1ncc(Cc2ccc3ncc(Cl)cc3c2)o1 [Example 84, N-((6-amino-2-methylpyridin-3-yl)methyl)-5-((3-chloroquinolin-6-yl)methyl)oxazole-2-carboxamide] | < 100 nM | – |
| COc1ncnc2c1c(C(=O)NCc1c(C)cc(N)nc1C)cn2Cc1ccc2ncc(Cl)cc2c1 [Example 131, N-((6-amino-2,4-dimethylpyridin-3-yl)methyl)-7-((3-chloroquinolin-6-yl)methyl)-4-methoxy-7H-pyrrolo[2,3-d]pyrimidine-5-carboxamide] | – | 100 to 1000 nM |
| Cc1cc(N)nc(C)c1CNC(=O)c1cc(C#N)n(Cc2ccc3ncc(Cl)cc3c2)n1 [Example 108, N-((6-amino-2,4-dimethylpyridin-3-yl)methyl)-1-((3-chloroquinolin-6-yl)methyl)-5-cyano-1H-pyrazole-3-carboxamide] | 100 to 1000 nM | – |
| Cc1nc(N)ccc1CNC(=O)c1oc(Cc2ccc3ncc(Cl)cc3c2)nc1C#N [Example 88, N-((6-amino-2-methylpyridin-3-yl)methyl)-2-((3-chloroquinolin-6-yl)methyl)-4-cyanooxazole-5-carboxamide] | 100 to 1000 nM | – |
